The values that follow come from paper PMC6422358 (Cell, 2018).

Each structure is given as a SMILES string.

The assay concerns the target GST-CCNT1 (AA 1–300) (Homo sapiens, UniProt O60563). The experiment in a line: AlphaLISA disruption of CCNT1-AFF4 peptide interaction. In kind it is binding.

GST-CCNT1 (AA 1–300), sequence (O60563 1-300): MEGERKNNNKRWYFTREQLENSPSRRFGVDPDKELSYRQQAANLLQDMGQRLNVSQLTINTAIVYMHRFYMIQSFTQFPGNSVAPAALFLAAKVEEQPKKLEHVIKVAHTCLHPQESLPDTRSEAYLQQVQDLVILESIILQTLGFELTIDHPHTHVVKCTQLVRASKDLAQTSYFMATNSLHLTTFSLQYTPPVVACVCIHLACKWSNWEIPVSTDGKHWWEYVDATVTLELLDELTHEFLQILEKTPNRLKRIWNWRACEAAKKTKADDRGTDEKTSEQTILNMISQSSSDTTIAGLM

A word on the Ki: it is the dissociation constant of the complex between target and ligand, obtained from inhibition or displacement. The low end stands for a stronger hold on the target, the high end for a looser hold on the target. Take `COc1cccc(C(=O)/C=C(\O)C(=O)Nc2cc(Cl)ccc2C)c1` [4a, (2Z)-N-(5-Chloro-2-methylphenyl)-2-hydroxy-4-(3-methoxyphenyl)-4-oxo-2butenamide]: the Ki is 3.48 µM.
